The text below walks through data of patent US20180021234A1, “Oral Care Compositions and Methods of Use” (Colgate-Palmolive Company, priority 2015, published 2018).

Structures are written as SMILES.

For experiment [1], the system named is biofilms formed from native saliva on hydroxyapatite (HAP) disks. The experiment is described as follows: Active-attachment biofilm model, lactic acid production (residual metabolic activity). Format: cell-based. The settings on record: for metabolic activity relative to control groups (water) and variable groups: Example 5. On the procedure: (§1) The active-attachment biofilm model has been previously described by Extercate et al. Caries Research 2010; 44: 372-379, the contents of which are incorporated by reference herein. The biofilm model consists of a metal lid with 24 clamps carrying hydroxyapatite (HAP) disks. The model is inoculated in 24-well plates with native saliva. Biofilms were formed via active recruitment of bacteria onto free-hanging HAP disks.
(§2) Treatment is performed after formation of a 24 h biofilm. Lactic acid production is determined to assess the residual metabolic activity of biofilms after repeated exposure to test products. The assay is conducted using a L-Lactate Assay Kit according to the manufacturer's protocol (Cayman Chemical Company, Cat. No. 700510).
The anti-metabolic activity of arginine alone and combined with zinc on bacteria in solutions and in toothpastes is measured by lactic acid production during a 3-hour window after the last treatment. The bacterial metabolic activity, as measured by lactic acid production, decreases in (toothpaste) groups with:
The antibacterial activity of serine and lysine is assessed individually and in combination with zinc and determined by lactic acid production during a 3-hour window after the last treatment according to Example 1.
The anti-metabolic activity of serine and lysine individually, and in combination with zinc, are tested. Using the biofilm model described in Example 1, antibacterial activity of serine and lysine is tested individually and in combination with zinc.

Experiment [2] has the same test system. The experiment is described as follows: Active-attachment biofilm model, colony forming units (live counts). The experiment is classed as cell-based. The following applies: for number of CFUs relative to control solutions (water) and variable groups: Example 4; for number of CFUs relative to control solutions (water) and variable groups / Log CFU/ml: solutions; for Log CFU/ml: Example 4 (serine, lysine, with or without zinc). On the procedure:
as §1, §2
Colony forming units (CFUs) are determined to assess the anti-bacterial efficacy of test solutions after repeated exposure to biofilms. HAP disks are removed from the lid and transferred to 1.5 ml CPW for sonication. CFUs are determined by colony counting. Statistical analysis was performed using Minitab 16 Software. ANOVA and Tukey test were performed on available CFU counts and lactic acid values.
Anti-bacterial efficacy of arginine alone and in combination with zinc in solutions and in toothpastes is tested by live counts using the biofilm model described in Example 1. The approximate number of live counts (CFUs) are as follows: […]

The mark [3] stands for this setting: solution, lactic acid production during a 3-hour window after the last treatment.
[4] abbreviates: solutions, Example 5 (serine, lysine, with or without zinc).

For the molecule `[O-2].[Zn+2]` [0.5% zinc oxide, zinc oxide], in experiment [1] (setting [3]), the “Lactate” value is listed as 6.25 mM. Besides, in experiment [2] (solution, live counts, biofilm model of Example 1), the CFU/ml was 9.65 Log CFU/ml.

`O=C([O-])CC(O)(CC(=O)[O-])C(=O)[O-].O=C([O-])CC(O)(CC(=O)[O-])C(=O)[O-].[Zn+2].[Zn+2].[Zn+2]` [0.25% zinc citrate, zinc citrate]: the “Lactate” value in experiment [1] (setting [3]) turned out to be 6.0 mM.

On to `NCCCC[C@H](N)C(=O)O` [4% lysine, lysine], for which the “metabolic activity relative to control groups (water) and variable groups” value in experiment [1] (solutions) is “do not demonstrate a decrease in metabolic activity”. In experiment [1] (setting [4]), the “Lactate” value stood at 2.7 mM. Further, in experiment [2], the “number of CFUs relative to control solutions (water) and variable groups” value is on record as “do not demonstrate a decrease”; the “Log CFU/ml” value is 9.37 Log CFU/ml.

In the case of `N[C@@H](CO)C(=O)O` [4% serine, serine], the “metabolic activity relative to control groups (water) and variable groups” value in experiment [1] (solutions) is given as “do not demonstrate a decrease in metabolic activity”. In experiment [1] (setting [4]), the “Lactate” value is 2.4 mM. Besides, in experiment [2], the “number of CFUs relative to control solutions (water) and variable groups” value is reported as “do not demonstrate a decrease”; the “Log CFU/ml” value was determined as 9.45 Log CFU/ml.
